Experimental data published in ChEMBL document CHEMBL1201862, “PubChem BioAssay data set” (2004).
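Dose response: 5 concentrations. Exposure: 48 h. Format: 96-well plates. Endpoint: linear interpolation; highest concentration if not reached. GI50 = concentration required for 50% inhibition of growth.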 The source made the active and inactive calls. Rule as the data show it: active = GI50 up to about 1.1 µM and inactive = higher.

What was measured:
Experiment in all cases: growth of human tumour cells (NCI), 48 h
[1] = tested on: A549
[2] = tested on: ACHN
[3] = tested on: CAKI-1
[4] = tested on: CCRF-CEM
[5] = tested on: COLO 205
[6] = tested on: DU-145
[7] = tested on: EKVX
[8] = tested on: HCC 2998
[9] = tested on: HCT-116
[10] = tested on: HCT-15
[11] = tested on: HL-60
[12] = tested on: HOP-62
[13] = tested on: HOP-92
[14] = tested on: HT-29
[15] = tested on: Hs-578T
[16] = tested on: IGROV-1
[17] = tested on: K562
[18] = tested on: KM12
[19] = tested on: LOX IMVI
[20] = tested on: M14
[21] = tested on: MCF7
[22] = tested on: MDA-MB-231
[23] = tested on: MDA-MB-435
[24] = tested on: MDA-N
[25] = tested on: MOLT-4
[26] = tested on: Malme-3M
[27] = tested on: NCI-H226
[28] = tested on: NCI-H23
[29] = tested on: NCI-H460
[30] = tested on: NCI/ADR-RES
[31] = tested on: OVCAR-3
[32] = tested on: OVCAR-4
[33] = tested on: OVCAR-5
[34] = tested on: OVCAR-8
[35] = tested on: PC-3
[36] = tested on: RPMI-8226
[37] = tested on: RXF 393
[38] = tested on: SF-268
[39] = tested on: SF-295
[40] = tested on: SF-539
[41] = tested on: SK-MEL-28
[42] = tested on: SK-MEL-2
[43] = tested on: SK-MEL-5
[44] = tested on: SK-OV-3
[45] = tested on: SN12C
[46] = tested on: SNB-19
[47] = tested on: SR
[48] = tested on: SW-620
[49] = tested on: T47D
[50] = tested on: TK-10
[51] = tested on: U-251
[52] = tested on: UACC-257
[53] = tested on: UACC-62
[54] = tested on: UO-31
[55] = tested on: 786-0
[56] = tested on: A498
[57] = tested on: NCI-H522
[58] = tested on: SNB-75

## CC1(C)N=C(/C(Cl)=[N+](/[O-])C(=O)c2ccc(Cl)cc2)C(C)(C)N1O
[1]
  GI50: > 100 µM (inactive)
[2]
  GI50: 38.5 µM (inactive)
[3]
  GI50: 19.2 µM (inactive)
[4]
  GI50: 7.52 µM (inactive)
[5]
  GI50: 17 µM (inactive)
[6]
  GI50: > 100 µM (inactive)
[7]
  GI50: > 100 µM (inactive)
[8]
  GI50: 25.9 µM (inactive)
[9]
  GI50: 16.3 µM (inactive)
[10]
  GI50: 19.8 µM
[11]
  GI50: 18.5 µM (inactive)
[12]
  GI50: 39 µM (inactive)
[13]
  GI50: 17.3 µM (inactive)
[14]
  GI50: 22.1 µM (inactive)
[15]
  GI50: 36.2 µM (inactive)
[16]
  GI50: 41 µM (inactive)
[17]
  GI50: 5.51 µM (inactive)
[18]
  GI50: 45.3 µM (inactive)
[19]
  GI50: 6.76 µM (inactive)
[20]
  GI50: 18.2 µM (inactive)
[21]
  GI50: 17.3 µM (inactive)
[22]
  GI50: 21.8 µM (inactive)
[23]
  GI50: 22.3 µM (inactive)
[24]
  GI50: 17.1 µM (inactive)
[25]
  GI50: > 10 µM (inactive)
[26]
  GI50: 17.7 µM (inactive)
[27]
  GI50: 25.9 µM (inactive)
[28]
  GI50: 22.1 µM (inactive)
[29]
  GI50: 45.5 µM (inactive)
[30]
  GI50: 25.9 µM (inactive)
[31]
  GI50: 17.5 µM (inactive)
[32]
  GI50: 26.4 µM (inactive)
[33]
  GI50: 23.6 µM (inactive)
[34]
  GI50: 20.4 µM (inactive)
[35]
  GI50: 21.3 µM (inactive)
[36]
  GI50: 26.5 µM (inactive)
[37]
  GI50: 22 µM (inactive)
[38]
  GI50: 29.4 µM (inactive)
[39]
  GI50: 56 µM (inactive)
[40]
  GI50: 21.3 µM (inactive)
[41]
  GI50: 18.5 µM (inactive)
[42]
  GI50: 52.7 µM (inactive)
[43]
  GI50: 20 µM (inactive)
[44]
  GI50: > 100 µM (inactive)
[45]
  GI50: 23.8 µM (inactive)
[46]
  GI50: > 100 µM (inactive)
[47]
  GI50: 28.3 µM (inactive)
[48]
  GI50: 20.3 µM (inactive)
[49]
  GI50: 38.3 µM (inactive)
[50]
  GI50: 19.8 µM (inactive)
[51]
  GI50: 26.4 µM (inactive)
[52]
  GI50: 18.2 µM (inactive)
[53]
  GI50: > 10 µM (inactive)
[54]
  GI50: > 100 µM (inactive)

## O=C(O)C1CCCCC1c1c2ccc(=O)c(O)c-2oc2c(O)c(O)ccc12 (stereo unspecified)
[55]
  GI50: 19.3 µM (inactive)
[56]
  GI50: 21.7 µM (inactive)
[1]
  GI50: 13 µM (inactive)
[2]
  GI50: 14 µM (inactive)
[3]
  GI50: 65.6 µM (inactive)
[4]
  GI50: 0.18 µM (active)
[5]
  GI50: > 100 µM (inactive)
[6]
  GI50: 52.1 µM (inactive)
[7]
  GI50: 38.1 µM (inactive)
[9]
  GI50: 13.2 µM (inactive)
[11]
  GI50: 20.7 µM (inactive)
[12]
  GI50: 31.6 µM (inactive)
[13]
  GI50: 31.6 µM (inactive)
[14]
  GI50: 74.5 µM (inactive)
[15]
  GI50: 4.44 µM (inactive)
[16]
  GI50: 26.2 µM (inactive)
[17]
  GI50: 17.9 µM (inactive)
[18]
  GI50: 35.2 µM (inactive)
[19]
  GI50: 13.8 µM (inactive)
[20]
  GI50: 64.7 µM (inactive)
[21]
  GI50: 14.2 µM (inactive)
[22]
  GI50: 18.6 µM (inactive)
[23]
  GI50: 16.7 µM (inactive)
[24]
  GI50: 17.2 µM (inactive)
[25]
  GI50: 22.8 µM (inactive)
[26]
  GI50: 95.7 µM (inactive)
[27]
  GI50: 12.1 µM (inactive)
[29]
  GI50: 37.7 µM (inactive)
[57]
  GI50: 14.5 µM (inactive)
[31]
  GI50: 42.1 µM (inactive)
[32]
  GI50: 21.7 µM (inactive)
[33]
  GI50: > 100 µM (inactive)
[34]
  GI50: 22 µM (inactive)
[35]
  GI50: > 100 µM (inactive)
[36]
  GI50: 29.9 µM (inactive)
[37]
  GI50: 69.7 µM (inactive)
[38]
  GI50: 9.38 µM (inactive)
[39]
  GI50: 23.7 µM (inactive)
[41]
  GI50: 69.5 µM (inactive)
[42]
  GI50: > 100 µM (inactive)
[43]
  GI50: 25.5 µM (inactive)
[44]
  GI50: 50.6 µM (inactive)
[45]
  GI50: 19.3 µM (inactive)
[46]
  GI50: 29.4 µM (inactive)
[58]
  GI50: 28.3 µM (inactive)
[47]
  GI50: 27.5 µM (inactive)
[48]
  GI50: 17.6 µM (inactive)
[49]
  GI50: 46.2 µM (inactive)
[50]
  GI50: > 100 µM (inactive)
[51]
  GI50: 7.4 µM (inactive)
[52]
  GI50: > 100 µM (inactive)
[53]
  GI50: 23.6 µM (inactive)
[54]
  GI50: 44.4 µM (inactive)

## N=C(N)c1ccc(OCCCCCOc2ccc(C(=N)N)cc2)cc1 [PENTAMIDINE]
[55]
  GI50: 13.7 µM (inactive)
[1]
  GI50: 11 µM (inactive)
[2]
  GI50: 23.6 µM (inactive)
[3]
  GI50: 57 µM (inactive)
[6]
  GI50: 13.2 µM (inactive)
[7]
  GI50: 19.1 µM (inactive)
[8]
  GI50: 12.2 µM (inactive)
[9]
  GI50: 22.4 µM (inactive)
[10]
  GI50: 24.8 µM
[11]
  GI50: 19.3 µM (inactive)
[12]
  GI50: 14.9 µM (inactive)
[13]
  GI50: 28.5 µM (inactive)
[15]
  GI50: 14.9 µM (inactive)
[17]
  GI50: 3.45 µM (inactive)
[19]
  GI50: 16.1 µM (inactive)
[20]
  GI50: 15.5 µM (inactive)
[21]
  GI50: 9.55 µM (inactive)
[22]
  GI50: 16.7 µM (inactive)
[23]
  GI50: 16.6 µM (inactive)
[24]
  GI50: 15.6 µM (inactive)
[28]
  GI50: 10.4 µM (inactive)
[29]
  GI50: 2.98 µM (inactive)
[30]
  GI50: 71.6 µM (inactive)
[31]
  GI50: 14.3 µM (inactive)
[32]
  GI50: 10.9 µM (inactive)
[33]
  GI50: 21 µM (inactive)
[34]
  GI50: 13.7 µM (inactive)
[35]
  GI50: 18.5 µM (inactive)
[37]
  GI50: 16.7 µM (inactive)
[38]
  GI50: 17.2 µM (inactive)
[40]
  GI50: 12.6 µM (inactive)
[41]
  GI50: 14.7 µM (inactive)
[42]
  GI50: 9.06 µM (inactive)
[45]
  GI50: 6.55 µM (inactive)
[46]
  GI50: 10.7 µM (inactive)
[49]
  GI50: 7.76 µM (inactive)
[50]
  GI50: 18.9 µM (inactive)
[51]
  GI50: 8.26 µM (inactive)
[53]
  GI50: 12.2 µM (inactive)
